Laboratory results reported in patent US11325899B2, “Benzofurane and benzothiophene derivatives as PGE2 receptor modulators” (IDORSIA PHARMACEUTICALS LTD, priority 2017, dated 2022).

What was measured:
[1] = target: T1, PTGER4 (EP4) (Homo sapiens, UniProt P35408); assay: hEP4 b-arrestin assay (PathHunter HEK 293 PTGER4 b-arrestin cells); type: cell-based; conditions: antagonistic activity, beta-arrestin assay; read-out: hEP4 b-arr IC50
T1 construct: host or cells: HEK 293 (PathHunter PTGER4 b-arrestin cell line)
T1 sequence (P35408 whole entry): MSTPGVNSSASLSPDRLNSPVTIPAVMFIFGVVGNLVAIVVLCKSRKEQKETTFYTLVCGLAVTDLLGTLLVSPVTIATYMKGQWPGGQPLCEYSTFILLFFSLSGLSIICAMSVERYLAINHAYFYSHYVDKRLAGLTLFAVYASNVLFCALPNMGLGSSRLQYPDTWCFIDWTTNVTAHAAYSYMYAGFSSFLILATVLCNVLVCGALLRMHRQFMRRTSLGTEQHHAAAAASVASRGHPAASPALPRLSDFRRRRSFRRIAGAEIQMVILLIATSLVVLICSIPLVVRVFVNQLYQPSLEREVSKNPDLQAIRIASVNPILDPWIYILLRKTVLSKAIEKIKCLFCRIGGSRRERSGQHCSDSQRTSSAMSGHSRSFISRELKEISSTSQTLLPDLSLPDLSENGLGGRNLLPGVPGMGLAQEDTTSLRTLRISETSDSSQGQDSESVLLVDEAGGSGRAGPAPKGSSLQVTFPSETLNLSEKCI
Description: (§1) The antagonistic activities of the compounds of formula (I) on the EP2 and EP4 receptors are determined in accordance with the following experimental method.
(§2) The assay is using the PathHunter™ HEK 293 PTGER2 and PTGER4 b-arrestin cell lines from DiscoverX. The system is based on the Enzyme Fragment Complementation Technology. Two complementing fragments of the b-galactosidase enzyme are expressed within stably transfected cells. The larger portion of b-gal, termed EA for Enzyme Acceptor, is fused to the C-terminus of b-arrestin 2. The smaller fragment, termed ProLink™ tag, is fused to PTGER2 (EP2) or PTRGER4 (EP4) at the C-terminus. Upon activation, b-arrestin is recruited which forces the interaction of ProLink and EA, allowing complementation of the two fragments of b-gal and the formation of a functional enzyme which is capable of hydrolysing the substrate and generating a chemiluminescent signal.
(§3) The HEK 293 PTGER4 b-arrestin cells (DiscoverX 93-030-4C1) are detached from culture dishes with a cell dissociation buffer (Invitrogen, 13151-014), and collected in growing medium (GM: DMEM+Glutamax-I (Invitrogen 32430)/10% FCS, 1% Penicilin/streptomycin). 5000 cells per well of a 384 well plate (white with white bottom Greiner 781080) are seeded in 20 ul per well of GM. Plate is incubated at 37° C., 5% C02 for 24 hours.
(§4) Stock solutions of test compounds are made at a concentration of 10 mM in DMSO, and serially diluted in DMSO to concentrations required for inhibition dose response curves (tested concentration range 10 μM-2 nM or 1 μM-0.2 nM).
PGE2 (Cayman 14010, stock solution: 100 uM in DMSO) is used as agonist at 20 nM final concentration, corresponding to EC80.
Five microliters of diluted compounds are transferred into the assay plate. Plate is pre-incubated 15 minutes at 37° C. Then five microliters of PGE2 (final conc. 20 nM) are transferred into the assay plate. Plate is incubated 120 minutes at 37° C.
(§5) PathHunter Glo Detection Kit components are thawed and mix according to manufacturer's instructions: 1 part Galacton Star Substrate with 5 parts Emerald II™ Solution, and 19 parts of PathHunter Cell Assay Buffer, respectively. Twelve μl of reagent are transferred to the assay plate and incubate for 1 hour at room temperature in the dark. Luminescence counts are read on a BMG Fluostar Optima reader according to manufacturer's instructions.
(§6) For each compound concentration calculate of the percentage of activity compared to DMSO control value as average±STDEV. (each concentration is measured in duplicate)
(§7) IC50 values and curves are generated with XLfit software (IDBS) using Dose-Response One Site model 203. When compounds were measured multiple times, mean values are given.

[2] = target: T2, PTGER2 (EP2) (Homo sapiens, UniProt P43116); assay: hEP2 b-arrestin assay (PathHunter HEK 293 PTGER2 b-arrestin cells); type: cell-based; conditions: antagonistic activity, beta-arrestin assay; read-out: hEP2 b-arr IC50
T2 construct: host or cells: HEK 293 (PathHunter PTGER2 b-arrestin cell line)
T2 sequence (P43116 whole entry): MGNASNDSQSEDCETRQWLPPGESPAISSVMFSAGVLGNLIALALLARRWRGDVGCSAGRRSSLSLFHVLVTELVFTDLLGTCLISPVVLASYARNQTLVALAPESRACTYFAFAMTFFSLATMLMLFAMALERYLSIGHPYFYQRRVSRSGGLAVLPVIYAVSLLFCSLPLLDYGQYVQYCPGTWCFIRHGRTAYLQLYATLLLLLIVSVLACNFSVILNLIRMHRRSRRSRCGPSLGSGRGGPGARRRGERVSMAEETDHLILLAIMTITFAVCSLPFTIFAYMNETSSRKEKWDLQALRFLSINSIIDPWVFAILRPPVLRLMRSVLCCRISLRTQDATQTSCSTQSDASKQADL
Description: as §1, §2
as §3, with “PTGER2” for “PTGER4”, “93-021-4C1)” for “93-030-4C1)”
as §4
PGE2 (Cayman 14010, stock solution: 10 mM in DMSO) is used as agonist at 5 μM final concentration, corresponding to EC80.
Five microliters of diluted compounds are transferred into the assay plate. Plate is pre-incubated 15 minutes at 37° C. Then five microliters of PGE2 (final conc. 5 μM) are transferred into the assay plate. Plate is incubated 120 minutes at 37° C.
as §5, §6, §7

Compound	IC50 [1]	IC50 [2]
COc1cc(-c2cc(NCCc3c(C#N)sc4ccccc34)ncn2)ccc1CC(=O)O [Example 174, (4-{6-[2-(2-Cyano-benzo[b]thiophen-3-yl)-ethylamino]-pyrimidin-4-yl}-2-methoxy-phenyl)-acetic acid]	723 nM	135 nM
Cc1sc2c(C)cc(F)cc2c1CCNc1cc(-c2ccc(C(N)=O)cc2)ncn1 [Example 178, 4-{6-[2-(5-Fluoro-2,7-dimethyl-benzo[b]thiophen-3-yl)-ethylamino]-pyrimidin-4-yl}-benzamide]	331 nM	48 nM
CCSc1cc(-c2cc(NCCc3c(C)sc4c(C)cc(F)cc34)ncn2)ccc1C(=O)O [Example 179, 2-Ethylsulfanyl-4-{6-[2-(5-fluoro-2,7-dimethyl-benzo[b]thiophen-3-yl)-ethylamino]-pyrimidin-4-yl}-benzoic acid]	184 nM	8 nM
CCc1cc(-c2cc(NCCc3c(C)sc4c(C)cc(F)cc34)ncn2)ccc1CC(=O)O [Example 185, (2-Ethyl-4-{6-[2-(5-fluoro-2,7-dimethyl-benzo[b]thiophen-3-yl)-ethylamino]-pyrimidin-4-yl}-phenyl)-acetic acid]	134 nM	50 nM
Cc1sc2c(C)cc(F)cc2c1CCNc1cc(-c2ccc(CC(=O)O)c(OC(C)C)c2)ncn1 [Example 192, (4-{6-[2-(5-Fluoro-2,7-dimethyl-benzo[b]thiophen-3-yl)-ethylamino]-pyrimidin-4-yl}-2-isopropoxy-phenyl)-acetic acid]	261 nM	72 nM
CCc1cc(-c2cc(NCCc3c(C)sc4c(C)cc(F)cc34)ncn2)ccc1C(=O)O [Example 193, 2-Ethyl-4-{6-[2-(5-fluoro-2,7-dimethyl-benzo[b]thiophen-3-yl)-ethylamino]-pyrimidin-4-yl}-benzoic acid]	667 nM	18 nM
CCc1cc(-c2cc(NCCc3c(C)sc4c(C)cc(F)cc34)ncn2)sc1CC(=O)O [Example 197, (3-Ethyl-5-{6-[2-(5-fluoro-2,7-dimethyl-benzo[b]thiophen-3-yl)-ethylamino]-pyrimidin-4-yl}-thiophen-2-yl)-acetic acid]	146 nM	85 nM
CCOc1cc(-c2cc(NCCc3c(C)sc4c(C)cc(F)cc34)ncn2)[nH]c1C(=O)O [Example 199, 3-Ethoxy-5-{6-[2-(5-fluoro-2,7-dimethyl-benzo[b]thiophen-3-yl)-ethylamino]-pyrimidin-4-yl}-1 H-pyrrole-2-carboxylic acid]	363 nM	5 nM
CCCn1cc(-c2cc(NCCc3c(C)sc4c(C)cc(F)cc34)ncn2)cc1C(=O)O [Example 201, 4-{6-[2-(5-Fluoro-2,7-dimethyl-benzo[b]thiophen-3-yl)-ethylamino]-pyrimidin-4-yl}-1-propyl-1H-pyrrole-2-carboxylic acid]	351 nM	34 nM
COc1cc(-c2cc(NCCc3c(C)sc4c(C)cc(F)cc34)ncn2)ccc1-c1cc(O)no1 [Example 203, 5-(4-{6-[2-(5-Fluoro-2,7-dimethyl-benzo[b]thiophen-3-yl)-ethylamino]-pyrimidin-4-yl}-2-methoxy-phenyl)-isoxazol-3-ol [tautomeric form: 5-(4-(6-((2-(5-fluoro-2,7-dimethylbenzo[b]thiophen-3-yl)ethyl)amino)pyrimidin-4-yl)-2-methoxyphenyl)isoxazol-3(2H)-one]]	239 nM	16 nM
Cc1sc2c(C)cc(F)cc2c1CCNc1cc(-c2ccc(/C=C/C(=O)O)cc2)ncn1 [Example 204, (E)-3-(4-{6-[2-(5-Fluoro-2,7-dimethyl-benzo[b]thiophen-3-yl)-ethylamino]-pyrimidin-4-yl}-phenyl)-acrylic acid]	1030 nM	108 nM
Cc1[nH]c(-c2cc(NCCc3c(C)sc4c(C)cc(F)cc34)ncn2)cc1C(=O)O [Example 205, 5-{6-[2-(5-Fluoro-2,7-dimethyl-benzo[b]thiophen-3-yl)-ethylamino]-pyrimidin-4-yl}-2-methyl-1 H-pyrrole-3-carboxylic acid]	771 nM	74 nM

Next, values leading:

IC50 [1]	IC50 [2]	Compound
757 nM	8 nM	CSc1cc(-c2cc(NCCc3c(C#N)sc4ccccc34)ncn2)ccc1C(=O)O [Example 173, 4-{6-[2-(2-Cyano-benzo[b]thiophen-3-yl)-ethylamino]-pyrimidin-4-yl}-2-methylsulfanyl-benzoic acid]
212 nM	47 nM	Cc1sc2c(C)cc(F)cc2c1CCNc1cc(-c2ccc(-c3noc(=O)[nH]3)cc2)ncn1 [Example 177, 3-(4-{6-[2-(5-Fluoro-2,7-dimethyl-benzo[b]thiophen-3-yl)-ethylamino]-pyrimidin-4-yl}-phenyl)-[1,2,4]oxadiazol-5(4H)-one [tautomeric form: 3-(4-{6-[2-(5-Fluoro-2,7-dimethyl-benzo[b]thiophen-3-yl)-ethylamino]-pyrimidin-4-yl}-phenyl)-[1,2,4]oxadiazol-5-ol]]
120 nM	20 nM	Cc1sc2c(C)cc(F)cc2c1CCNc1cc(-c2ccc(-c3c(O)c(=O)c3=O)cc2)ncn1 [Example 180, 3-(4-{6-[2-(5-Fluoro-2,7-dimethyl-benzo[b]thiophen-3-yl)-ethylamino]-pyrimidin-4-yl}-phenyl)-4-hydroxy-cyclobut-3-ene-1,2-dione]
423 nM	126 nM	CCc1cc(-c2cc(NCCc3c(C)sc4c(C)cc(F)cc34)ncn2)ccc1C(=O)OC [Example 181, 2-Ethyl-4-{6-[2-(5-fluoro-2,7-dimethyl-benzo[b]thiophen-3-yl)-ethylamino]-pyrimidin-4-yl}-benzoic acid methyl ester]
210 nM	40 nM	Cc1sc2c(C)cc(F)cc2c1CCNc1cc(-c2ccc3[nH]ccc3c2)ncn1 [Example 183, [2-(5-Fluoro-2,7-dimethyl-benzo[b]thiophen-3-yl)-ethyl]-[6-(1H-indol-5-yl)-pyrimidin-4-yl]-amine]
425 nM	79 nM	Cc1sc2c(C)cc(F)cc2c1CCNc1cc(-c2ccc(CC(=O)O)c(OC(F)(F)F)c2)ncn1 [Example 187, (4-{6-[2-(5-Fluoro-2,7-dimethyl-benzo[b]thiophen-3-yl)-ethylamino]-pyrimidin-4-yl}-2-trifluoromethoxy-phenyl)-acetic acid]
694 nM	98 nM	Cc1sc2c(C)cc(F)cc2c1CCNc1cc(-c2ccc(NC=O)cc2)ncn1 [Example 188, N-(4-{6-[2-(5-Fluoro-2,7-dimethyl-benzo[b]thiophen-3-yl)-ethylamino]-pyrimidin-4-yl}-phenyl)-formamide]
135 nM	45 nM	CCOc1cc(-c2cc(NCCc3c(C)sc4c(C)cc(F)cc34)ncn2)ccc1NC=O [Example 191, N-(2-Ethoxy-4-{6-[2-(5-fluoro-2,7-dimethyl-benzo[b]thiophen-3-yl)-ethylamino]-pyrimidin-4-yl}-phenyl)-formamide]
175 nM	77 nM	Cc1cc(-c2cc(NCCc3c(C)sc4c(C)cc(F)cc34)ncn2)cc(Cl)c1CC(=O)O [Example 198, (2-Chloro-4-{6-[2-(5-fluoro-2,7-dimethyl-benzo[b]thiophen-3-yl)-ethylamino]-pyrimidin-4-yl}-6-methyl-phenyl)-acetic acid]
550 nM	63 nM	CCn1cc(-c2cc(NCCc3c(C)sc4c(C)cc(F)cc34)ncn2)cc1C(=O)O [Example 200, 1-Ethyl-4-{6-[2-(5-fluoro-2,7-dimethyl-benzo[b]thiophen-3-yl)-ethylamino]-pyrimidin-4-yl}-1H-pyrrole-2-carboxylic acid]
